A word on the IC50: it is the concentration at which inhibition is half-maximal. Low values mean greater potency, high ones weaker potency.

The assay concerns the target T1, MAGL (Homo sapiens, UniProt Q99685).
T1 sequence (Q99685 1-303): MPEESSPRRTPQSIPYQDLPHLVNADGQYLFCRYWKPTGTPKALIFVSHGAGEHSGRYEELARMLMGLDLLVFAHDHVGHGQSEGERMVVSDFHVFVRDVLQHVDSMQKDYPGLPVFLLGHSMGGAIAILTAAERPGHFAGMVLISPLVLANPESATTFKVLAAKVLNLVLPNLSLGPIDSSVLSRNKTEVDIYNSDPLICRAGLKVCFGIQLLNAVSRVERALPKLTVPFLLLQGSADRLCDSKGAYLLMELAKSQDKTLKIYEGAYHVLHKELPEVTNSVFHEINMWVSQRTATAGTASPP
The assay is described as follows: In vitro competitive activity-based protein profiling, PC3 human cell membrane proteomes. Type of assay: biochemical. The conditions noted are these: human PC3 membrane proteome. Details: endogenous in cells; host or cells: PC3 human cells (membrane proteome). As to the method: PC3 human cell membrane proteomes (50 μL, 2.0 mg/mL total protein concentration) were preincubated with varying concentrations of inhibitors at 37° C. After 30 min, the ABPP probe JW912-Bodipy (1.0 μL, 50 μM in DMSO) was added and the mixture was incubated for 30 min at room temperature. Reactions were quenched with SDS loading buffer (15 μL-4×) and run on SDS-PAGE. Following gel imaging, serine hydrolase activity was determined by measuring fluorescent intensity of gel bands corresponding to MAGL using ImageJ 1.43u software. Intensities were converted to percent enzyme activity by normalizing to DMSO controls. IC50 values were determined by fitting percent enzyme activities to a non-linear regression, 4-parameter, sigmoidal dose response function in Prism GraphPad.
`O=C(Nc1cnoc1)[C@H]1CC12CCN(C(=O)OC(C(F)(F)F)C(F)(F)F)CC2` (single isomer, unassigned) [Example 14]: the 50% inhibitory concentration (IC50) is 0.013 µM.
In turn, `O=C(Nc1cnoc1)[C@@H]1CC12CCN(C(=O)OC(C(F)(F)F)C(F)(F)F)CC2` (single isomer, unassigned) [Example 15] gave an IC50 of 1 µM.
To `CP(C)(=O)c1ccc(NC(=O)C2CC23CCN(C(=O)OC(C(F)(F)F)C(F)(F)F)CC3)cn1` (single isomer, unassigned) [Example 21, 1,1,1,3,3,3-Hexafluoropropan-2-yl (R or S)-1-((6-(dimethylphosphoryl)pyridin-3-yl)carbamoyl)-6-azaspiro[2.5]octane-6-carboxylate] belongs 0.317 µM; to `O=C(Nc1ccncc1)C1CC12CCN(C(=O)OC(C(F)(F)F)C(F)(F)F)CC2` (single isomer, unassigned) [Example 23, 1,1,1,3,3,3-Hexafluoropropan-2-yl (R or S)-1-(pyridin-4-ylcarbamoyl)-6-azaspiro[2.5]octane-6-carboxylate], 0.2 µM.
To `O=C(NC(=O)C1CC12CCN(C(=O)OC(C(F)(F)F)C(F)(F)F)CC2)C1CCOCC1` (single isomer, unassigned) [Example 26, 1,1,1,3,3,3-Hexafluoropropan-2-yl (R or S)-1-((tetrahydro-2H-pyran-4-carbonyl)carbamoyl)-6-azaspiro[2.5]octane-6-carboxylate] belongs 0.016 µM; to `O=C(NC(=O)C1CC12CCN(C(=O)OC(C(F)(F)F)C(F)(F)F)CC2)C1CCOCC1` (single isomer, unassigned) [Example 27, 1,1,1,3,3,3-Hexafluoropropan-2-yl (R or S)-1-((tetrahydro-2H-pyran-4-carbonyl)carbamoyl)-6-azaspiro[2.5]octane-6-carboxylate], 0.056 µM; to `O=C(Nc1ccc(-n2cccn2)nc1)C1CC12CCN(C(=O)OC(C(F)(F)F)C(F)(F)F)CC2` (single isomer, unassigned) [Example 30, 1,1,1,3,3,3-Hexafluoropropan-2-yl (R or S)-1-((6-(1H-pyrazol-1-yl)pyridin-3-yl)carbamoyl)-6-azaspiro[2.5]octane-6-carboxylate], 0.39 µM.
For `CNC(=O)c1ccc(NC(=O)C2CC23CCN(C(=O)OC(C(F)(F)F)C(F)(F)F)CC3)cn1` (single isomer, unassigned) [Example 32, 1,1,1,3,3,3-Hexafluoropropan-2-yl (R or S)-1-((6-(methylcarbamoyl)pyridin-3-yl)carbamoyl)-6-azaspiro[2.5]octane-6-carboxylate] the value was 0.25 µM; for `CNC(=O)c1ccc(NC(=O)C2CC23CCN(C(=O)OC(C(F)(F)F)C(F)(F)F)CC3)cn1` (single isomer, unassigned) [Example 33, 1,1,1,3,3,3-Hexafluoropropan-2-yl (R or S)-1-((6-(methylcarbamoyl)pyridin-3-yl)carbamoyl)-6-azaspiro[2.5]octane-6-carboxylate], 0.0022 µM.
Take `COc1ccc(NC(=O)[C@@H]2CC23CCN(C(=O)OC(C(F)(F)F)C(F)(F)F)CC3)cn1` (single isomer, unassigned) [Example 36]: the IC50 was determined as 0.0051 µM.
To `COc1ccc(NC(=O)[C@H]2CC23CCN(C(=O)OC(C(F)(F)F)C(F)(F)F)CC3)cn1` (single isomer, unassigned) [Example 37] belongs 0.0011 µM; to `Cc1ncc(NC(=O)C2CC23CCN(C(=O)OC(C(F)(F)F)C(F)(F)F)CC3)cn1` (single isomer, unassigned) [Example 102, 1,1,1,3,3,3-hexafluoropropan-2-yl (R or S)-1-((2-methylpyrimidin-5-yl)carbamoyl)-6-azaspiro[2.5]octane-6-carboxylate], 0.15 µM.
For `Cc1ncc(NC(=O)C2CC23CCN(C(=O)OC(C(F)(F)F)C(F)(F)F)CC3)cn1` (single isomer, unassigned) [Example 103, 1,1,1,3,3,3-hexafluoropropan-2-yl (R or S)-1-((2-methylpyrimidin-5-yl)carbamoyl)-6-azaspiro[2.5]octane-6-carboxylate] the value was 0.0033 µM.
To `Cc1ccc(NC(=O)[C@@H]2CC23CCN(C(=O)OC(C(F)(F)F)C(F)(F)F)CC3)nn1` (single isomer, unassigned) [Example 105] belongs 0.1 µM.
With `Cc1ccc(NC(=O)[C@H]2CC23CCN(C(=O)OC(C(F)(F)F)C(F)(F)F)CC3)nn1` (single isomer, unassigned) [Example 106], the IC50 came to 0.001 µM.
Take `O=C(Nc1ccnnc1)C1CC12CCN(C(=O)OC(C(F)(F)F)C(F)(F)F)CC2` (single isomer, unassigned) [Example 108, 1,1,1,3,3,3-hexafluoropropan-2-yl (R or S)-1-(pyridazin-4-ylcarbamoyl)-6-azaspiro[2.5]octane-6-carboxylate]: the concentration for half-maximal inhibition (IC50) was found to be 0.013 µM.
`O=C(Nc1ccnnc1)C1CC12CCN(C(=O)OC(C(F)(F)F)C(F)(F)F)CC2` (single isomer, unassigned) [Example 109, 1,1,1,3,3,3-hexafluoropropan-2-yl (R or S)-1-(pyridazin-4-ylcarbamoyl)-6-azaspiro[2.5]octane-6-carboxylate] showed an IC50 of 0.57 µM.
For the compound `Cc1cnc(NC(=O)C2CC23CCN(C(=O)OC(C(F)(F)F)C(F)(F)F)CC3)cn1` (single isomer, unassigned) [Example 111, 1,1,1,3,3,3-hexafluoropropan-2-yl (R or S)-1-((5-methylpyrazin-2-yl)carbamoyl)-6-azaspiro[2.5]octane-6-carboxylate], the IC50 is 0.074 µM.
For `CN1CCC(NC(=O)C2CC23CCN(C(=O)OC(C(F)(F)F)C(F)(F)F)CC3)CC1` (single isomer, unassigned) [Example 114, 1,1,1,3,3,3-hexafluoropropan-2-yl (R or S)-1-((1-methylpiperidin-4-yl)carbamoyl)-6-azaspiro[2.5]octane-6-carboxylate] the value was 2.6 µM; for `CN1CCC(NC(=O)C2CC23CCN(C(=O)OC(C(F)(F)F)C(F)(F)F)CC3)CC1` (single isomer, unassigned) [Example 115, 1,1,1,3,3,3-hexafluoropropan-2-yl (R or S)-1-((1-methylpiperidin-4-yl)carbamoyl)-6-azaspiro[2.5]octane-6-carboxylate], 0.56 µM.
To `O=C(NCC1CCOCC1)[C@@H]1CC12CCN(C(=O)OC(C(F)(F)F)C(F)(F)F)CC2` (single isomer, unassigned) [Example 118] belongs 0.29 µM; to `O=C(OC(C(F)(F)F)C(F)(F)F)N1CCC2(CC1)CC2C(=O)N1CCOCC1` (single isomer, unassigned) [Example 120, 1,1,1,3,3,3-hexafluoropropan-2-yl (R or S)-1-(morpholine-4-carbonyl)-6-azaspiro[2.5]octane-6-carboxylate], 0.3 µM.
For `O=C(OC(C(F)(F)F)C(F)(F)F)N1CCC2(CC1)CC2C(=O)N1CCOCC1` (single isomer, unassigned) [Example 121, 1,1,1,3,3,3-hexafluoropropan-2-yl (R or S)-1-(morpholine-4-carbonyl)-6-azaspiro[2.5]octane-6-carboxylate] the value was 0.42 µM.

(Values after patent publication US20240018120A1, “MAGL INHIBITORS” (H. LUNDBECK A/S, priority 2020, published 2024).)
